Test results: ChEMBL document CHEMBL4251653, “In vivo potent BM635 analogue with improved drug-like properties” (Eur J Med Chem, 2018)
Converted amounts (≈) assume the structure as drawn.

Experiments:
[1] = test system: Mycobacterium tuberculosis; format: functional, H37Rv
Mus musculus [2] = test: Dose normalized AUC (0 to infinity) in C57BL/6 mouse at 4 mg/kg, iv after 1 to 24 hrs by LC-MS/MS method; format: ADME, organism-based; details: in vivo
[3] = Cmax in C57BL/6 mouse at 50 mg/kg, po after 1 to 24 hrs by LC-MS/MS method; format: ADME, organism-based; parameters: dose 50 mg/kg, route oral; details: in vivo
[4] = Cytotoxicity against human HepG2 cells incubated for 48 hrs by Cell-titer Glo assay; format: cell-based; details: read-out: TC50
[5] = test system: Mycobacterium tuberculosis; test: microbe, parasite or virus in culture; details: 144 h
Description: Antitubercular activity against Mycobacterium tuberculosis after 6 days by resazurin-based fluorescence assay

[6] = Kinetic solubility in pH 7.4 phosphate buffered saline incubated for 1 hr by chemiluminescent nitrogen detection method; format: physicochemical; details: read-out: Kinetic_solubility
[7] = Solubility of the compound in FaSSIF at pH 6.5 incubated for 4 hrs by UPLC-MS method; format: physicochemical
[8] = Tmax in C57BL/6 mouse at 50 mg/kg, po after 1 to 24 hrs by LC-MS/MS method; format: ADME, organism-based; details: in vivo
[9] = AUC (0 to infinity) in C57BL/6 mouse at 4 mg/kg, iv after 1 to 24 hrs by LC-MS/MS method; format: ADME, organism-based; parameters: dose 4 mg/kg, route intravenous, time infinity; details: in vivo
[10] = Oral bioavailability in C57BL/6 mouse at 50 mg/kg after 1 to 24 hrs by LC-MS/MS method; format: ADME, organism-based; details: in vivo
Mus musculus [11] = test: Tlast in C57BL/6 mouse at 50 mg/kg, po after 1 to 24 hrs by LC-MS/MS method; format: ADME, organism-based; details: in vivo
[12] = Permeability of the compound by artificial membrane permeability assay; format: ADME; details: PAMPA; read-out: permeability
HepG2 [13] = test: Cytotoxicity against human HepG2 cells assessed as compound concentration causing changes in membrane permeability by Cell Health assay; format: cell-based
HepG2 [14] = test: Cytotoxicity against human HepG2 cells assessed as compound concentration causing changes in mitochondrial potential by Cell Health assay; format: cell-based
Albumin = Albumin (Homo sapiens, UniProt P02768); test: Binding affinity to human serum albumin; format: ADME; details: isolated protein
[15] = Half life in C57BL/6 mouse at 4 mg/kg, iv after 1 to 24 hrs by LC-MS/MS method; format: ADME, organism-based; details: in vivo
[16] = Volume of distribution at steady state in C57BL/6 mouse at 4 mg/kg, iv after 1 to 24 hrs by LC-MS/MS method; format: ADME, organism-based; details: in vivo, read-out: Vdss
[17] = Clearance in C57BL/6 mouse at 4 mg/kg, iv after 1 to 24 hrs by LC-MS/MS method; format: ADME, organism-based; details: in vivo
HepG2 [18] = test: Cytotoxicity against human HepG2 cells assessed as compound concentration causing changes in nuclear morphology by Cell Health assay; format: cell-based
[19] = Lipophilicity, log D of the compound at pH 7.4 by UV-HPLC method; format: physicochemical; details: buffer, read-out: logD
[20] = Volume of distribution at steady state in C57BL/6 mouse at 1 mg/kg, iv after 1 to 24 hrs by LC-MS/MS method; format: ADME, organism-based; details: in vivo, read-out: Vdss
[21] = AUC (0 to infinity) in C57BL/6 mouse at 1 mg/kg, iv after 1 to 24 hrs by LC-MS/MS method; format: ADME, organism-based; parameters: dose 1 mg/kg, time infinity, route intravenous; details: in vivo
[22] = Half life in C57BL/6 mouse at 1 mg/kg, iv after 1 to 24 hrs by LC-MS/MS method; format: ADME, organism-based; details: in vivo
in vitro = details: human, HepG2 cells
Description: Selectivity index, ratio of TC50 for human HepG2 cells to MIC for Mycobacterium tuberculosis

[23] = Clearance in C57BL/6 mouse at 1 mg/kg, iv after 1 to 24 hrs by LC-MS/MS method; format: ADME, organism-based; details: in vivo
[24] = test system: Mycobacterium tuberculosis; test: microbe, parasite or virus in culture; details: H37Rv, THP-1, 96 h
Description: Antitubercular activity against Mycobacterium tuberculosis H37Rv infected in human THP1 macrophages incubated for 4 days by luciferase reporter gene assay

[25] = target: Voltage-gated inwardly rectifying potassium channel KCNH2 (Homo sapiens, UniProt Q12809); test: Inhibition of human ERG by [3H]dofetilide binding displacement assay
Mus musculus [26] = test: Dose normalized AUC (0 to infinity) in C57BL/6 mouse at 1 mg/kg, iv after 1 to 24 hrs by LC-MS/MS method; format: ADME, organism-based; details: in vivo
[27] = test system: Mycobacterium tuberculosis; format: functional, H37Rv; remark: listed apart in the source

Sequence of Albumin (P02768 whole entry): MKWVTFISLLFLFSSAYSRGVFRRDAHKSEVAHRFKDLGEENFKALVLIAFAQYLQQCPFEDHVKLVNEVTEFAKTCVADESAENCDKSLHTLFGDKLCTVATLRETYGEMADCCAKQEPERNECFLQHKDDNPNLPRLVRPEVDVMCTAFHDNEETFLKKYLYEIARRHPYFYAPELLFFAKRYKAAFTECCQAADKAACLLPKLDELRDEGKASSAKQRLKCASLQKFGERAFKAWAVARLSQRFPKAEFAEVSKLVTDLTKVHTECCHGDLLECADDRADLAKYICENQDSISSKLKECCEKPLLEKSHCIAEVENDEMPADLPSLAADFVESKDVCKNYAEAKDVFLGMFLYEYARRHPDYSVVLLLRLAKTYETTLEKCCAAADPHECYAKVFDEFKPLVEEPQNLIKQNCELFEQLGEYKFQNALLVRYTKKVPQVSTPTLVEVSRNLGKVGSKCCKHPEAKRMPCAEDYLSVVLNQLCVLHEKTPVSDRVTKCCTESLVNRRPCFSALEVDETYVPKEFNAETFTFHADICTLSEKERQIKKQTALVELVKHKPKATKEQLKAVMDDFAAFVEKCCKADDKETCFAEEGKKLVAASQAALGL
Sequence of Voltage-gated inwardly rectifying potassium channel KCNH2 (Q12809 whole entry): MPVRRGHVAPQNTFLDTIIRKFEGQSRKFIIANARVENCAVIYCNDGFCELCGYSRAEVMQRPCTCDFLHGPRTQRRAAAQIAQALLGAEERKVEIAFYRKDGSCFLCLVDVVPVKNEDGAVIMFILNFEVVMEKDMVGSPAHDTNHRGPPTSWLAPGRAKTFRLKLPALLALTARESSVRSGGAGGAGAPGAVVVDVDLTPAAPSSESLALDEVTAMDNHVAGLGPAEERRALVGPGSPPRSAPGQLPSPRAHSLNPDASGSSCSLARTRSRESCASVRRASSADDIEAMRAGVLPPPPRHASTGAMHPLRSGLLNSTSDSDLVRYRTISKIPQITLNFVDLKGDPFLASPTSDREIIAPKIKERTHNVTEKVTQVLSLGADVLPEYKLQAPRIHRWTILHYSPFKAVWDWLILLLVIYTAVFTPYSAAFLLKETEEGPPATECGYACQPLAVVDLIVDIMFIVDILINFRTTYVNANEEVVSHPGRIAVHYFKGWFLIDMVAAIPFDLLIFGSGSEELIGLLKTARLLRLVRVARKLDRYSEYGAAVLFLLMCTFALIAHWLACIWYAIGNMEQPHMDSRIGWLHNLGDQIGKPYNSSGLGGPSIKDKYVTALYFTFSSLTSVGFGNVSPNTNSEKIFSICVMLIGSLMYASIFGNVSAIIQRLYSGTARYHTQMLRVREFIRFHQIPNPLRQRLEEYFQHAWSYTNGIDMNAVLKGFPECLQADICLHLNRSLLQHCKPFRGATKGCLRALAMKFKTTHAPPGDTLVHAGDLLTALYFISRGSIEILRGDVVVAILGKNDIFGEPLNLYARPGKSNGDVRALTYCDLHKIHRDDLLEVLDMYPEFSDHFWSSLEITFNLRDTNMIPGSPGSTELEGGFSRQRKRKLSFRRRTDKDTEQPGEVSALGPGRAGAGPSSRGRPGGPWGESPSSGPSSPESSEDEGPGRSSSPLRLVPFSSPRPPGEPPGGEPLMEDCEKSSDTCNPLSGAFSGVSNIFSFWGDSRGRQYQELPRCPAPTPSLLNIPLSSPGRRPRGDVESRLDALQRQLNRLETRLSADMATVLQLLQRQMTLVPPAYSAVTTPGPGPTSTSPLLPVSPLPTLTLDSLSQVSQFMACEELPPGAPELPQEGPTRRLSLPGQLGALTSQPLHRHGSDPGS

| SMILES | Activity [1] | Cmax [3] | CC50 at 48 h [4] | MIC [5] | solubility kinetic at 1 h [6] | solubility at 4 h [7] | Tmax [8] | bioavailability [10] | Tlast (Mus musculus [11]) | Papp [12] | Activity (HepG2 [13]) | Activity (HepG2 [14]) | Activity (Albumin) | Activity (HepG2 [18]) | logD [19] | also measured |
| --- | --- | --- | --- | --- | --- | --- | --- | --- | --- | --- | --- | --- | --- | --- | --- | --- |
| Cc1c(CN2CCOCC2)cc(-c2ccc(C(C)C)cc2)n1C(C)C | 1.5 log10CFU | 177 ng/mL | 20 µM | 0.15 µM (≈ 0.0511 µg/mL) | 199 µM (≈ 67.8 µg/mL) | 249 µg/mL (≈ 731 µM) | 42 min | 1.2% | 7.3 h | 72 ×10⁻⁶ cm/s | 32 µM | 32 µM | 94.11% | 25 µM | 7.68 | AUC/dose (Mus musculus [2]): 1006 ng·h/mL/mg/kg; AUC(0-inf) [9]: 4020 ng·h/mL; half-life [15]: 102 min; Vd [16]: 1.8 L/kg; clearance [17]: 16.9 mL/min/kg |
| Cc1c(CN2CCOCC2)cc(-c2ccc(C(C)C)cc2)n1C1CCCOC1 (centres undefined) | 0.1 log10CFU | 548 ng/mL | 50 µM | 0.15 µM (≈ 0.0574 µg/mL) | 241 µM (≈ 92.2 µg/mL) | 43 µg/mL (≈ 112 µM) | 54 min | 23% | 8 h | 73 ×10⁻⁶ cm/s | > 200 µM | > 200 µM | 92.85% | > 200 µM | 6.86 | Vd [20]: 3.5 L/kg; AUC(0-inf) [21]: 138 ng·h/mL; half-life [22]: 24 min; selectivity ratio (in vitro): 333; clearance [23]: 125 mL/min/kg; IC50 [24]: 0.3 µM; IC50 [25]: 10 µM; AUC/dose (Mus musculus [26]): 138 ng·h/mL/mg/kg |
| COc1c(N2C[C@@H]3CCCN[C@@H]3C2)c(F)cc2c(=O)c(C(=O)O)cn(C3CC3)c12 [MOXIFLOXACIN] | – | – | – | – | – | – | – | – | – | – | – | – | – | – | – | Activity [27]: 3.1 log10CFU |
